Active and inactive are the calls of the source. The rule behind the calls is not given here.
Test system: CCRIS mutagenicity, Ames/micronucleus/aberration tests
Experiment: CCRIS mutagenicity studies
[1] = Test System: AMES SALMONELLA TYPHIMURIUM, Strain/Indicator: TA98, Metabolic Activation: HAMSTER, LIVER, S-9, AROCLOR 1254 (10%), Method: PREINCUBATION
[2] = Test System: AMES SALMONELLA TYPHIMURIUM, Strain/Indicator: TA98, Metabolic Activation: NONE, Method: PREINCUBATION
[3] = Test System: AMES SALMONELLA TYPHIMURIUM, Strain/Indicator: TA98, Metabolic Activation: NONE, Method: STANDARD PLATE
[4] = Test System: AMES SALMONELLA TYPHIMURIUM, Strain/Indicator: TA98, Metabolic Activation: RAT, LIVER, S-9, AROCLOR 1254 (10%), Method: PREINCUBATION
[5] = Test System: AMES SALMONELLA TYPHIMURIUM, Strain/Indicator: TA100, Metabolic Activation: HAMSTER, LIVER, S-9, AROCLOR 1254 (10%), Method: PREINCUBATION
[6] = Test System: AMES SALMONELLA TYPHIMURIUM, Strain/Indicator: TA100, Metabolic Activation: NONE, Method: PREINCUBATION
[7] = Test System: AMES SALMONELLA TYPHIMURIUM, Strain/Indicator: TA100, Metabolic Activation: NONE, Method: STANDARD PLATE
[8] = Test System: AMES SALMONELLA TYPHIMURIUM, Strain/Indicator: TA100, Metabolic Activation: RAT, LIVER, S-9, AROCLOR 1254 (10%), Method: PREINCUBATION
[9] = Test System: AMES SALMONELLA TYPHIMURIUM, Strain/Indicator: TA1535, Metabolic Activation: HAMSTER, LIVER, S-9, AROCLOR 1254 (10%), Method: PREINCUBATION
[10] = Test System: AMES SALMONELLA TYPHIMURIUM, Strain/Indicator: TA1535, Metabolic Activation: NONE, Method: PREINCUBATION
[11] = Test System: AMES SALMONELLA TYPHIMURIUM, Strain/Indicator: TA1535, Metabolic Activation: NONE, Method: STANDARD PLATE
[12] = Test System: AMES SALMONELLA TYPHIMURIUM, Strain/Indicator: TA1535, Metabolic Activation: RAT, LIVER, S-9, AROCLOR 1254 (10%), Method: PREINCUBATION
[13] = Test System: AMES SALMONELLA TYPHIMURIUM, Strain/Indicator: TA1537, Metabolic Activation: NONE, Method: STANDARD PLATE
[14] = Test System: AMES SALMONELLA TYPHIMURIUM, Strain/Indicator: TA1538, Metabolic Activation: NONE, Method: STANDARD PLATE

SMILES: C/C=C1\CC2C=CC1C2 (stereo unspecified)
- mutagenic call [1]: inactive; negative
- mutagenic call [2]: inactive; negative
- mutagenic call [3]: inactive; negative
- mutagenic call (Test System: AMES SALMONELLA TYPHIMURIUM, Strain/Indicator: TA98, Metabolic Activation: RAT LIVER S-9, AROCLOR 1254, Method: STANDARD PLATE): inactive; negative
- mutagenic call [4]: inactive; negative
- mutagenic call [5]: inactive; negative
- mutagenic call [6]: inactive; negative
- mutagenic call [7]: inactive; negative
- mutagenic call (Test System: AMES SALMONELLA TYPHIMURIUM, Strain/Indicator: TA100, Metabolic Activation: RAT LIVER S-9, AROCLOR 1254, Method: STANDARD PLATE): inactive; negative
- mutagenic call [8]: inactive; negative
- mutagenic call [9]: inactive; negative
- mutagenic call [10]: inactive; negative
- mutagenic call [11]: inactive; negative
- mutagenic call (Test System: AMES SALMONELLA TYPHIMURIUM, Strain/Indicator: TA1535, Metabolic Activation: RAT LIVER S-9, AROCLOR 1254, Method: STANDARD PLATE): inactive; negative
- mutagenic call [12]: inactive; negative
- mutagenic call (Test System: AMES SALMONELLA TYPHIMURIUM, Strain/Indicator: TA1537, Metabolic Activation: HAMSTER, LIVER, S-9, AROCLOR 1254 (10%), Method: PREINCUBATION): inactive; negative
- mutagenic call (Test System: AMES SALMONELLA TYPHIMURIUM, Strain/Indicator: TA1537, Metabolic Activation: NONE, Method: PREINCUBATION): inactive; negative
- mutagenic call [13]: inactive; negative
- mutagenic call (Test System: AMES SALMONELLA TYPHIMURIUM, Strain/Indicator: TA1537, Metabolic Activation: RAT LIVER S-9, AROCLOR 1254, Method: STANDARD PLATE): inactive; negative
- mutagenic call (Test System: AMES SALMONELLA TYPHIMURIUM, Strain/Indicator: TA1537, Metabolic Activation: RAT, LIVER, S-9, AROCLOR 1254 (10%), Method: PREINCUBATION): inactive; negative
- mutagenic call [14]: inactive; negative
- mutagenic call (Test System: AMES SALMONELLA TYPHIMURIUM, Strain/Indicator: TA1538, Metabolic Activation: RAT LIVER S-9, AROCLOR 1254, Method: STANDARD PLATE): inactive; negative
- mutagenic call (Test System: CHINESE HAMSTER OVARY, Strain/Indicator: CHO-K1-BH4 (HGPRT)/6-THIOGUANINE, Metabolic Activation: NONE): inactive; negative
- mutagenic call (Test System: CHINESE HAMSTER OVARY, Strain/Indicator: CHO-K1-BH4 (HGPRT)/6-THIOGUANINE, Metabolic Activation: RAT LIVER S-9, AROCLOR 1254): inactive; negative

SMILES: CN(C)CCNC(=O)c1ccc2nc3ccccc3c(N)c2c1
- mutagenic call [13]: inactive; negative

SMILES: O=c1c(-c2ccc(O)cc2)coc2cc(O)cc(O)c12
- mutagenic call (End Point: IN VITRO CHROMOSOMAL ABERRATIONS, Test System: HUMAN PERIPHERAL LYMPHOCYTES, Metabolic Activation: NONE): active; positive (structural changes)
- mutagenic call (End Point: IN VITRO MICRONUCLEUS, Test System: CHINESE HAMSTER V79 CELLS, Metabolic Activation: NONE): active; positive
- mutagenic call (End Point: IN VITRO MICRONUCLEUS, Test System: MOUSE LYMPHOMA L5178Y CELLS, Metabolic Activation: NONE): active; positive
- mutagenic call (End Point: IN VIVO CHROMOSOMAL ABERRATIONS, Test System: MAMMARY GLAND CELLS, USING DUAL PROBE FISH, Species: RAT, Strain/Sex: SPRAGUE-DAWLEY/FEMALE, Route: DIET): inactive; negative
- mutagenic call (End Point: IN VIVO MICRONUCLEUS, Test System: MAMMARY GLAND CELLS, Species: RAT, Strain/Sex: SPRAGUE-DAWLEY/FEMALE, Route: DIET): inactive; negative
- mutagenic call (End Point: MORPHOLOGICAL TRANSFORMATION, Test System: SYRIAN HAMSTER EMBRYO CELLS (SHE), Metabolic Activation: NONE): inactive; negative
- mutagenic call (Test System: CHINESE HAMSTER V-79, Strain/Indicator: V-79 (HPRT)/6-THIOGUANINE, Metabolic Activation: NONE): active; positive
- mutagenic call (Test System: MOUSE LYMPHOMA, Strain/Indicator: L5178Y TK+/-, Metabolic Activation: NONE): active; positive (above 90 umol/l)
- mutagenic call (Test System: MOUSE LYMPHOMA, Strain/Indicator: L5178Y TK+/-, Metabolic Activation: S-9): active; positive
- mutagenic call (Test System: SYRIAN HAMSTER EMBRYO CELLS, Strain/Indicator: HPRT/6-THIOGUANINE, Metabolic Activation: NONE, Method: PLATE): active; positive

SMILES: Nc1cc([N+](=O)[O-])cc(Cl)c1O
- mutagenic call (Test System: AMES SALMONELLA TYPHIMURIUM, Strain/Indicator: TA97, Metabolic Activation: HAMSTER, LIVER, S-9, AROCLOR 1254 (10%), Method: PREINCUBATION): active; positive
- mutagenic call (Test System: AMES SALMONELLA TYPHIMURIUM, Strain/Indicator: TA97, Metabolic Activation: NONE, Method: PREINCUBATION): active; positive
- mutagenic call (Test System: AMES SALMONELLA TYPHIMURIUM, Strain/Indicator: TA97, Metabolic Activation: RAT, LIVER, S-9, AROCLOR 1254 (10%), Method: PREINCUBATION): active; positive
- mutagenic call [1]: active; positive
- mutagenic call [2]: active; positive
- mutagenic call [4]: active; positive
- mutagenic call [5]: inactive; negative
- mutagenic call [6]: active; positive
- mutagenic call [8]: active; positive
- mutagenic call [9]: inactive; negative
- mutagenic call [10]: inactive; negative
- mutagenic call [12]: inactive; negative

SMILES: Nc1ccc(Cc2ccc(N=O)c(Cl)c2)cc1Cl
- mutagenic call [2]: inactive; negative
- mutagenic call [6]: inactive; negative

SMILES: COC(=O)Nc1nc2ccc(OS(=O)(=O)c3ccc(F)cc3)cc2[nH]1
- mutagenic call [3]: inactive; negative
- mutagenic call (Test System: AMES SALMONELLA TYPHIMURIUM, Strain/Indicator: TA98, Metabolic Activation: RAT, LIVER, S-9, AROCLOR 1254, Method: STANDARD PLATE): inactive; negative
- mutagenic call [7]: inactive; negative
- mutagenic call (Test System: AMES SALMONELLA TYPHIMURIUM, Strain/Indicator: TA100, Metabolic Activation: RAT, LIVER, S-9, AROCLOR 1254, Method: STANDARD PLATE): inactive; negative
- mutagenic call [11]: inactive; negative
- mutagenic call (Test System: AMES SALMONELLA TYPHIMURIUM, Strain/Indicator: TA1535, Metabolic Activation: RAT, LIVER, S-9, AROCLOR 1254, Method: STANDARD PLATE): inactive; negative
- mutagenic call [14]: inactive; negative
- mutagenic call (Test System: AMES SALMONELLA TYPHIMURIUM, Strain/Indicator: TA1538, Metabolic Activation: RAT, LIVER, S-9, AROCLOR 1254, Method: STANDARD PLATE): inactive; negative
- mutagenic call (Test System: E. COLI, Strain/Indicator: WP2, Metabolic Activation: NONE, Method: STANDARD PLATE): inactive; negative
- mutagenic call (Test System: E. COLI, Strain/Indicator: WP2, Metabolic Activation: RAT, LIVER, S-9, AROCLOR 1254, Method: STANDARD PLATE): inactive; negative
- mutagenic call (Test System: E. COLI, Strain/Indicator: WP2 UVRA (PKM101), Metabolic Activation: NONE, Method: STANDARD PLATE): inactive; negative
- mutagenic call (Test System: E. COLI, Strain/Indicator: WP2 UVRA (PKM101), Metabolic Activation: RAT, LIVER, S-9, AROCLOR 1254, Method: STANDARD PLATE): inactive; negative
- mutagenic call (Test System: E. COLI, Strain/Indicator: WP2 UVRA, Metabolic Activation: NONE, Method: STANDARD PLATE): inactive; negative
- mutagenic call (Test System: E. COLI, Strain/Indicator: WP2 UVRA, Metabolic Activation: RAT, LIVER, S-9, AROCLOR 1254, Method: STANDARD PLATE): inactive; negative

SMILES: CCCC(=O)OCc1ccccc1[N+](=O)[O-]
- mutagenic call [2]: inactive; negative
- mutagenic call [6]: inactive; negative
- mutagenic call (Test System: AMES SALMONELLA TYPHIMURIUM, Strain/Indicator: TA100, Metabolic Activation: RAT, LIVER, S-9, AROCLOR 1254, Method: PREINCUBATION): inactive; negative
